# In US7087661B1, “Safe and effective biofilm inhibitory compounds and health-related uses thereof” (Cernofina, LLC, priority 1998, dated 2006):
# Several values for one entry are separate records, joined by “and”; a condition that tells them apart may be missing. Equal values may be shown once. Where a name gives a salt, the structure may show the parent alone.
# Legend:
# [1] = system: polyclonal antibodies specific for zosteric acid; assay: Preliminary testing of anti-zosteric acid polyclonal antibodies for cross reactivity; format: binding
# Source text: To investigate the mechanism behind the AF activity of sulfate esters, polyclonal antibodies specific for the sulfate ester zosteric acid were generated (BAbCo, Berkeley, Calif.). […] These antibodies were then used to investigate whether the sulfate ester AF agent zosteric acid directly binds fouling organisms.
# [2] = system: sea urchin egg fertilization (sperm-egg fusion); assay: Sea urchin fertilization assays; format: cell-based
# Procedure: A simple sea urchin assay was used to detect and quantitate the ability of sulfate esters to block sperm-egg fusion. Sea urchin sperm was added to freshly collected eggs in the presence and absence of increasing amounts of the sulfate ester zosteric acid, and the eggs were subsequently scored for successful fertilization. Fertilization assays. Healthy sea urchins were induced to spawn by injection with 0.5 M KCL solution. Freshly collected eggs were gently washed and resuspended in filtered sea water (FSW, pH 8.2) and aliquotted into separate tubes for fertilization assays. Zosteric acid was added to each tube from a concentrated stock dissolved in FSW (pH 8.2), along with additional FSW to ensure a constant volume in each tube. Equal amounts of sperm were added to each tube and percent fertilization was determined by direct microscopic counting. Eggs with elevated fertilization membranes were scored as fertilized. Assays were performed at sperm-limiting concentrations that allowed 95–99% fertilization in the absence of zosteric acid.
# Alteromonas atlantica = Alteromonas atlantica adhesion tests on glass slides; format: cell-based; details: for Alteromonas atlantica adhesion relative to controls: 5 mM dissolved in modified ASTM seawater
# Procedure: Alteromonas atlantica adhesion tests. The tests consisted of a control sample set, a zosteric acid (5 mM) sample set, an octyl sulfate (5 mM) sample set, and a methyl sulfate (5 mM) set. A sample set consisted of six 60 mL sterile centrifuge tubes. Each tube contained a glass microscope slide and 50 mL of modified ASTM seawater (American Society for Testing and Materials (1986) D1141-86, ASTM, Philadelphia, Pa.) with dissolved agent, inoculated with Alteromonas atlantica culture to an initial cell density of 1×10^6 cells/mL. The modified seawater consisted of normal ASTM seawater ingredients, however the carbon source glycerol, was only 1000th the normal strength, […], and was void of an amino acid source (casamino acids), in order to allow enough carbon for attachment, but not for significant cell growth.
# (§1) Determination of bacterial adhesion. Samples were removed from the shaker and 1 mL of 50× acridine orange stain (0.5 g/L acridine powder in water) was added to the tube. The stain was allowed to react for 4 minutes. The slides were then removed and fitted with a long cover slip and immediately counted with an epifluorescent microscope fitted with a 100× (oil) objective lens on the under side of the slide. The size of the counting field was 10×10 μm. A total of 20 counts per slide were performed and averaged to yield the number of cells per μm^2, which was in turn converted to cells per mm^2. Error was assigned at 10% which is the standard accepted error for direct counting of bacterial cells.
# [3] = system: natural marine algal biofilms; assay: Marine algal biofilm development on RTV-11 silicone coating in running raw seawater; format: cell-based, marine algae; details: 25% (wt/wt) in RTV-11 silicone coated on glass slides; 26 days in running seawater
# Source text: A 30% (w/v) solution of octyl sulfate in water (Stepan Chemical Co.) was evaporated to dryness under a stream of room temperature air, to recover pure octyl sulfate (FIG. 1). The dry octyl sulfate was incorporated into RTV-11 silicone polymer at a loading of 25% (wt/wt) (RTV-11 silicone, catalyst and primer obtained from General Electric). The mixture was applied to three glass slides previously primed with silicone primer, and allowed to cure to dryness. Three primed glass slides coated with pure RTV-11 served as agent-free controls. After complete drying, the absorption properties of each slide were measured using a Shimadzu UV-2101 spectrophotometer fitted with an integrating sphere. Slides were then placed in a tank of running raw seawater and allowed to incubate outdoors in natural sunlight for 26 days. Water temperature was nominally 15 C. Spectrophotometric determination of biofilm accumulation was measured on each slide periodically. Relative algal biomass was calculated as the ratio of absorption at 680 nm, contributed by chlorophyll a, to that at 750 nm, a wavelength not absorbed by chlorophyll, to correct for differences in turbidity and scattering properties of the different slides.
# Oceanosprillum = Oceanosprillum adhesion test on glass slides; format: cell-based; details: 5 mM in artificial seawater, 6-hour period
# Procedure: Oceanosprillum adhesion test Each test consisted of a control set (with no sulfate esters) and sample sets containing the test molecules. The first test group consisted of a control sample set, a zosteric acid (5 mM) sample set, and an octyl sulfate (5 mM) sample set. The second test group consisted of a control sample set, a zosteric acid (5 mM) sample set, and a methyl sulfate (5 mM) sample set. Sample sets consisted of five 50 mL sterile centrifuge tubes, with each tube containing a glass microscope slide, 50 ml of artificial seawater (ASTM—American Society for testing and materials) with the dissolved sulfate ester, inoculated with an Oceanosprillum culture at 1×10^6 cells/mL. Sample sets were incubated at 23 C, with shaking so that the surface of the slides were horizontal. Over a 6-hour period, individual tubes were taken from the sample sets and tested for microbial adhesion.
# as §1
# equine erythrocytes = assay: Red blood cell agglutination assays; format: cell-based; details: for concentrations producing erythrocyte agglutination: washed equine erythrocytes, 0.005 to 5.0 mg/mL tested
# Procedure: Red Blood Cell agglutination assays. Washed equine erythrocytes suspended in 1 mg/mL sodium citrate were placed in microtiter plates designed with wells containing hemispherical bottoms. Negative controls (no zosteric acid) were diluted in isotonic saline solution. Zosteric acid treated cells were diluted with saline containing zosteric acid at eight concentrations ranging from 0.005 to 5.0 mg/mL. Positive controls were exposed to the same range of high molecular weight heparin sulfate concentrations.
# [4] = system: clot formation (prothrombin clotting time); assay: Prothrombin clotting time assays; format: biochemical; details: human serum
# Procedure: Clotting assays. Clotting time assays were performed using commercial kits (Sigma Chemical Co.) for prothrombin clotting time. Serum was harvested from 30 mL of whole human blood obtained by venous puncture using centrifugation to remove blood cells. Zosteric acid and high MW heparin were added to separate aliquots of the serum, producing concentrations from 0 to 5.0 mg/mL. Clotting times were determined for each concentration in duplicate according to the protocols provided with the kit.
# [5] = system: Shewanella putrefaciens cell surface; assay: Cell surface binding assay (immuno-gold staining, electron microscopy); details: cultures grown with 16 mM zosteric acid
# Procedure: The marine bacterium Shewanella putrefaciens were grown in cultures containing zosteric acid and were subsequently examined for bound zosteric acid using immuno-gold staining with the antibody described above.
# Cell Surface Binding Assays. The marine bacterium Shewanella putrefaciens was grown in marine broth in the presence of 16 mM zosteric acid. Dense log phase cells were harvest after 5 hours growth, and preserved in 0.5× Kamofsky's fixative (2% formaldehyde, 2.5% gluturaldehyde, 0.05 M sodium cacodylate, 0.25 M sucrose, pH 7.4) for 2 hours, and then transferred to a cacodylate buffer (0.05 M sodium cacodylate, pH 7.4) for storage. Cells were prepared for electron microscopic examination using immuno-gold staining techniques (Harlow, E. and Laine, D., Antibodies, A Laboratory Manual, Cold Spring Harbor Laboratory, 359–421; Roth et al., J. Histochem. Cytochem. 26: 1074–1081 (1978)). The primary antibody used in this study was an anti-zosteric acid polyclonal antibody (BAbCo, Richmond, Calif.).
# [6] = system: agglutination of sea urchin eggs by purified bindin; assay: Sea urchin egg agglutination assays with purified bindin; format: cell-based
# Procedure: Sea urchin egg agglutination assays. Freshly spawned eggs were suspended in acidic seawater (pH 5) for 5 minutes to remove the outer jelly coat, and then washed 5 times in normal FSW (pH 8.2). Eggs were then transferred into plastic petri dished containing a range of zosteric acid concentrations and incubated for 15 minutes. Purified bindin (D. Epel, Stanford University) was added to the eggs at concentrations ranging from 1.2 to 12 μg/mL. The mixtures were gently agitated on a rotary shaker for 5 minutes and visually examined for agglutination. Bovine serum albumen (BSA) was used in separate assays to control for nonspecific agglutination of the dejellied eggs.
# Aureobasidium pullulans = assay: Fungal attachment and growth assay on glass slides; format: cell-based, Aureobasidium pullulans (ATCC 34261)
# Procedure: Aureobasidium pullulans (ATCC 34261) was grown on potato-dextrose agar and harvested according to ASTM G-21-90 protocols (American Society for Testing and Materials (1986) […]-86, ASTM, Philadelphia, Pa.). The resulting spore suspension was used to inoculate liquid culture tubes containing 35 mL of growth medium (nutrient salts with 5 mM sucrose) and 15 mM zosteric acid. Zosteric acid-free medium was prepared as a control. A sterile microscope slide was added to each tube, the tubes were sealed and placed on a rotary shaker table at room temperature. One tube was harvested each day by removing the slide and counting the number of attached spores by direct microscopic counts, as described above.
# Shewanella putrefaciens = assay: Bacterial agglutination assays (growth and agglutination in liquid culture); format: cell-based
# Procedure: To further investigate the role of sulfate esters in agglutination, the ability of sulfate esters to facilitate the agglutination of bacterial cells was investigated. Log-phase cultures grown in the presence of zosteric acid were monitored spectrophotometrically (OD600) for growth, and for agglutination in the presence of increasing amounts of zosteric acid. Bacterial agglutination assays. Log-phase cultures of Shewanella putrefaciens were grown in complete seawater medium containing zosteric acid at a range of concentrations up to 20 mM. Cultures were counted for viable colony forming units at eight hours.
molecule,measurement,setting,value
O=C(O)C=Cc1ccccc1 [cinnamic acid],cross reactivity with antibodies specific for zosteric acid,[1],no cross reactivity
"CCC(C)(C)c1ccc(OS(=O)(=O)Cl)cc1 [4-PPCS, 4 t-Pentyl Phenyl Chlorosulfate]",impact on sperm motility,[2]; contact with 4-PPCS,no adverse impacts
same,inhibition when more sperm were added to the medium,[2]; exceeding the binding capacity of 4-PPCS in solution,could be washed out
same,effectiveness in blocking sea urchin fertilization,[2]; in the range of 1–10 mM,~100%
COc1cc(/C=C/C(=O)O)ccc1O [ferulic acid],cross reactivity with antibodies specific for zosteric acid,[1],no cross reactivity
"O=C(O)/C=C/c1ccc(O)cc1 [coumaric acid, reference compound]",effect on egg fertilization,[2]; 1 mg/mL,no effect
CCCCCCCCOS(=O)(=O)[O-].[Na+] [octyl sulfate],Alteromonas atlantica adhesion relative to controls,Alteromonas atlantica,slightly higher inhibitory activity than zosteric acid
same,algal biofilm development relative to controls lacking octyl sulfate,[3],five fold less
same,Oceanosprillum adhesion (bacterial attachment) relative to control,Oceanosprillum,to an even greater extent than zosteric acid
heparin [reference compound],concentrations producing erythrocyte agglutination,equine erythrocytes,greater than 0.75 mg/mL
same,concentrations effective at preventing clot formation,[4],below 0.1 mg/ml
same,reduction of fertilization,[2]; 1 mg/mL,approximately 50%
O=C(O)/C=C/c1ccc(OS(=O)(=O)O)cc1 [zosteric acid],reactivity with cell surface glycoproteins and polysaccharides relative to high molecular weight heparin,equine erythrocytes; from erythrocyte agglutination concentrations,eight times more reactive
same,concentrations producing erythrocyte agglutination,equine erythrocytes,≥ 0.175 mg/mL
same,concentrations effective at preventing clot formation,[4],exceeding 10 mg/ml
same,zosteric acid bound to bacterial cell surface (immuno-gold staining),[5],bound to the surface of the bacteria
same,Alteromonas atlantica adhesion relative to controls,Alteromonas atlantica,significant reduction
same,Agglutination,[6]; [ZA] 0.015 mg mL^−1,Yes
same,Agglutination,[6]; [ZA] 0.03 mg mL^−1,Yes
same,Agglutination,[6]; [ZA] 0.075 mg mL^−1,Yes
same,Agglutination,[6]; [ZA] 0.15 mg mL^−1,Yes
same,Agglutination,[6]; [ZA] 0.30 mg mL^−1,Yes
same,Agglutination,[6]; [ZA] 0.75 mg mL^−1,Yes
same,Agglutination,[6]; [ZA] 1.5 mg mL^−1,No
same,Agglutination,[6]; [ZA] 3 mg mL^−1,No
same,filamentous growth or mycelial development of colonies,Aureobasidium pullulans; 15 mM in liquid culture,no evidence of filamentous growth or mycelial development
same,germinated fungal colonies on slides,"Aureobasidium pullulans; 15 mM, after 5 days incubation, control more than 600",less than 20 germinated fungal colonies/mm^2
same,growth of fungal spores in the medium,"Aureobasidium pullulans; 15 mM, clouding of tubes after Day 1",observed to grow
same,counts of viable colony forming units,"Shewanella putrefaciens; at eight hours, among the different cultures",no difference in cell density
same,agglutination of S. putrefaciens,"Shewanella putrefaciens; concentration dependent, up to 20 mM",significant agglutination
same,growth of S. putrefaciens in liquid culture,Shewanella putrefaciens; concentrations up to 16 mM,did not inhibit the growth
same,concentration range effective in blocking sea urchin fertilization,[2],1 to 10 mM
same,fertilization remaining,[2]; 1 mg/mL,21%
same,effectiveness at inhibiting fertilization relative to heparin,"[2]; equal mass concentrations, 1 mg/mL",at least twice as effective
same,concentrations that completely blocked fertilization,"[2]; sea urchin eggs, sperm-limiting concentrations",higher than 0.5 mg/mL and > 1.5 mM
same,effect on sperm viability or motility,[2]; sea urchin sperm exposed to zosteric acid,no detected effect
same,reversibility of fertilization inhibition,[2]; unfertilized eggs of highest treatment washed and re-exposed to fresh sperm,reversible
same,Oceanosprillum adhesion (bacterial attachment) relative to control,Oceanosprillum,roughly a two fold reduction
COS(=O)(=O)O [methyl sulfate],Alteromonas atlantica adhesion,"Alteromonas atlantica; 5 mM, constant after 120 minutes, controls greater than 700,000","150,000 cells/mm^2"
same,Oceanosprillum adhesion (bacterial attachment) relative to control,Oceanosprillum,roughly a two fold reduction
